Earlier results as cited in patent EP0920301B1, “THERAPEUTIC OR HYGIENIC COMPOSITIONS WITH CONTROLLED AND PROLONGED RELEASE OF THE ACTIVE PRINCIPLE(S), IN PARTICULAR FOR OPHTHALMIC USE” (priority 1997, dated 1998).

Test system: la plupart des agents infectieux
Conditions: stated threshold, source not given

Q: With sulfate de gentamicine as the substance, how does the concentration inhibitrice minimale read?
A: Its concentration inhibitrice minimale is 4 µg/mL.
